Results: ChEMBL document CHEMBL1152321, “Recent advances in the chemistry and biology of new generation taxoids” (J Nat Prod, 2009)

Tests used:
A2780 [1] = test: Resistance factor, ratio of IC50 for paclitaxel and cyclosporine-resistant human A2780TC3 cells overexpressing class 3 beta-tubulin to IC50 for wild type human A2780 cells; type: functional
A2780 [2] = test: Cytotoxicity against human cisplatin-resistant A2780 cells after 72 hrs; type: functional, cell-based; settings: A2780, 72 h
[3] = Activity ratio of compound IC50 to paclitaxel IC50 for paclitaxel and cyclosporine-resistant human A2780TC3 cells overexpressing class 3 beta-tubulin; type: functional
A2780 [4] = test: Cytotoxicity against human wild type A2780 cells after 72 hrs; type: functional, cell-based; settings: A2780, 72 h
[5] = Cytotoxicity against human paclitaxel and cyclosporine-resistant A2780TC3 cells overexpressing class 3 beta-tubulin after 72 hrs; type: functional, cell-based; settings: A2780TC3, 72 h
A2780 [6] = test: Cytotoxicity against human topotecan-resistant A2780 cells after 72 hrs; type: functional, cell-based; settings: A2780, 72 h
[7] = Cytotoxicity against human A2780/ADR cells after 72 hrs; type: functional, cell-based
[8] = Cytotoxicity against human paclitaxel and cyclosporine-resistant A2780TC1 cells overexpressing class 3 beta-tubulin after 72 hrs; type: functional, cell-based; settings: A2780TC1, 72 h
[9] = Cytotoxicity against multidrug-resistant human NCI/ADR cells after 72 hrs; type: functional, cell-based; settings: NCI/ADR-RES
[10] = Cytotoxicity against human LCC-6 cells expressing P-glycoprotein after 72 hrs; type: functional, cell-based; settings: LCC-6, 72 h
MCF7 [11] = test: Cytotoxicity against P-glycoprotein deficient wild type human MCF7 cells after 72 hrs; type: functional, cell-based; settings: MCF7, 72 h
[12] = Cytotoxicity against P-glycoprotein deficient wild type human LCC-6 cells after 72 hrs; type: functional, cell-based; settings: LCC-6, 72 h
HT-29 = test: Cytotoxicity against human HT-29 cells after 72 hrs; type: functional, cell-based; settings: HT-29, 72 h
MCF7 [13] = test: Resistance factor, ratio of IC50 for human MCF7 cells expressing P-glycoprotein to IC50 for P-glycoprotein deficient wild type human MCF7 cells; type: functional
MCF7 [14] = test: Cytotoxicity against human MCF7 cells expressing P-glycoprotein after 72 hrs; type: functional, cell-based; settings: MCF7, 72 h
PANC-1 = test: Cytotoxicity against human PANC1 cells expressing mdr1, mrp1, mrp2, lrp genes after 72 hrs; type: functional, cell-based; settings: PANC-1, 72 h
[15] = Resistance factor, ratio of IC50 for human LCC-6 cells expressing P-glycoprotein to IC50 for P-glycoprotein deficient wild type human LCC-6 cells; type: functional; parameters: reference not given here
MCF7 [16] = test: Resistance factor, ratio of IC50 for P-glycoprotein deficient wild type human MCF7 cells to IC50 for multidrug-resistant human NCI/ADR cells; type: functional

## CC(=O)O[C@@]1([C@@H]2/C(C)=C(/O)C(=O)C3=C(C)[C@@H](OC(=O)[C@H](O)[C@H](CC(C)C)NC(=O)OC(C)(C)C)C[C@@](O)([C@H]2OC(=O)c2cccc(F)c2)C3(C)C)CO[C@H]1CCO
A2780 [1]
  Ratio IC50: 41
A2780 [2]
  IC50: 11.8 nM
[3]
  Ratio IC50: 39
A2780 [4]
  IC50: 11.1 nM
[5]
  IC50: 460 nM
A2780 [6]
  IC50: 12.8 nM
[7]
  IC50: 3730 nM
[8]
  IC50: 1500 nM

## CC(=O)O[C@H]1C(=O)[C@@]2(C)[C@H]([C@H](OC(=O)c3ccccc3)[C@]3(O)[C@H]4OC/C=C/Cc5ccccc5C(=O)N[C@@H](c5ccccc5)[C@@H](O)C(=O)O[C@@H]4C(C)=C1C3(C)C)[C@]1(OC(C)=O)CO[C@@H]1C[C@@H]2O
[9]
  IC50: 592 nM
[10]
  IC50: 300 nM
A2780 [4]
  IC50: 114 nM
MCF7 [11]
  IC50: 12.3 nM
[12]
  IC50: 12.2 nM
HT-29
  IC50: 29.2 nM

## CC(=O)O[C@H]1C(=O)[C@@]2(C)[C@H]([C@H](OC(=O)c3ccccc3)[C@]3(O)[C@H]4OC/C=C/OCc5ccccc5C(=O)N[C@@H](c5ccccc5)[C@@H](O)C(=O)O[C@@H]4C(C)=C1C3(C)C)[C@]1(OC(C)=O)CO[C@@H]1C[C@@H]2O
[9]
  IC50: 10000 nM
[10]
  IC50: 2280 nM
A2780 [4]
  IC50: 1480 nM
MCF7 [11]
  IC50: 1650 nM
[12]
  IC50: 2070 nM
HT-29
  IC50: 523 nM

## CCC(=O)O[C@H]1C(=O)[C@@]2(C)[C@H]([C@H](OC(=O)c3ccccc3)[C@]3(O)C[C@H](OC(=O)[C@H](O)[C@H](C=C(F)F)NC(=O)OC(C)(C)C)C(C)=C1C3(C)C)[C@]1(OC(C)=O)CO[C@@H]1C[C@@H]2O
MCF7 [13]
  Ratio: 10
MCF7 [11]
  IC50: 0.12 nM
MCF7 [14]
  IC50: 1.2 nM
HT-29
  IC50: 0.34 nM
PANC-1
  IC50: 0.65 nM

## CC(=O)O[C@H]1C(=O)[C@@]2(C)[C@H]([C@H](OC(=O)c3ccccc3)[C@]3(O)[C@H]4OC/C=C/Cc5ccccc5C(=O)N[C@@H](C=C(C)C)[C@@H](O)C(=O)O[C@@H]4C(C)=C1C3(C)C)[C@]1(OC(C)=O)CO[C@@H]1C[C@@H]2O
[9]
  IC50: 1000 nM
[10]
  IC50: 618 nM
MCF7 [11]
  IC50: 398 nM
[12]
  IC50: 130 nM

## CCC(=O)O[C@H]1C(=O)[C@@]2(C)[C@H]([C@H](OC(=O)c3cccc(OC)c3)[C@]3(O)C[C@H](OC(=O)[C@H](O)[C@H](C=C(C)C)NC(=O)C4CC4)C(C)=C1C3(C)C)[C@]1(OC(C)=O)CO[C@@H]1C[C@@H]2O
[12]
  IC50: 1.1 nM
[15]
  Ratio: 16
MCF7 [16]
  Ratio: 15.6

## C=CC[C@H](NC(=O)OC(C)(C)C)[C@@H](O)C(=O)O[C@H]1C[C@@]2(O)[C@@H](OC(=O)c3cccc(OC)c3)[C@@H]3[C@]4(OC(C)=O)CO[C@@H]4C[C@H](O)[C@@]3(C)C(=O)[C@H](OC(=O)CC)C(=C1C)C2(C)C
[12]
  IC50: 1.2 nM
[15]
  Ratio: 7
MCF7 [16]
  Ratio: 10.9

## COC(=O)O[C@H]1C(=O)[C@@]2(C)[C@H]([C@H](OC(=O)c3cccc(OC)c3)[C@]3(O)C[C@H](OC(=O)[C@H](O)[C@H](C=C(C)C)NC(=O)OC(C)(C)C)C(C)=C1C3(C)C)[C@]1(OC(C)=O)CO[C@@H]1C[C@@H]2O
[12]
  IC50: 0.6 nM
[15]
  Ratio: 2.7
MCF7 [16]
  Ratio: 3.5

## CCC(=O)O[C@H]1C(=O)[C@@]2(C)[C@H]([C@H](OC(=O)c3ccccc3)[C@]3(O)C[C@H](OC(=O)[C@H](O)[C@H](C=C(C)C)NC(=O)OC4CCCCC4)C(C)=C1C3(C)C)[C@]1(OC(C)=O)CO[C@@H]1C[C@@H]2O
[12]
  IC50: 1.2 nM
[15]
  Ratio: 13
MCF7 [16]
  Ratio: 6.4

## CCC(=O)O[C@H]1C(=O)[C@@]2(C)[C@H]([C@H](OC(=O)c3ccccc3)[C@]3(O)C[C@H](OC(=O)[C@H](O)[C@H](C=C(C)C)NC(=O)C4CCC4)C(C)=C1C3(C)C)[C@]1(OC(C)=O)CO[C@@H]1C[C@@H]2O
[12]
  IC50: 1.3 nM
[15]
  Ratio: 26
MCF7 [16]
  Ratio: 34

## C=CCC[C@H](NC(=O)OC(C)(C)C)[C@@H](O)C(=O)O[C@H]1C[C@@]2(O)[C@@H](OC(=O)c3cccc(OC)c3)[C@@H]3[C@]4(OC(C)=O)CO[C@@H]4C[C@H](O)[C@@]3(C)C(=O)[C@H](OC(=O)CC)C(=C1C)C2(C)C
[12]
  IC50: 0.9 nM
[15]
  Ratio: 6
MCF7 [16]
  Ratio: 3.9

## CC(=O)O[C@@]12CO[C@@H]1C[C@H](O)[C@@]1(C)C(=O)[C@H](OC(=O)C3CC3)C3=C(C)[C@@H](OC(=O)[C@H](O)[C@H](C=C(F)F)NC(=O)OC(C)(C)C)C[C@@](O)([C@@H](OC(=O)c4ccccc4)[C@H]21)C3(C)C
MCF7 [13]
  Ratio: 50
MCF7 [11]
  IC50: 0.12 nM
MCF7 [14]
  IC50: 6 nM
HT-29
  IC50: 0.85 nM
PANC-1
  IC50: 5.85 nM
